PubChem BioAssay AID463229 (Broad Institute, 2010)
The source made the active and inactive calls.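 How the source made its calls: active means compounds raising the signal whose fitted half-maximal concentration is at or below their top tested dose (cut at about 25 µM in these data); inconclusive means flat fit at 30 to 70% activity, or a poor fit; inactive means the rest.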

Tested on: INS-1E rat beta cells, no cytokines, CellTiter-Glo ATP, 48 h
Assay: cytokine-free beta-cell viability effect – INS-1E rat cells, ATP luminescence, cherry pick, counter-screen for beta-cell apoptosis protection project, dose response (AID 463229)

SMILES	AC50
O=C(NCc1cccnc1)/C(=C\c1ccc(-c2cccc(Cl)c2)o1)S(=O)(=O)c1ccccc1	6.78 µM
COCCCNC(=O)Cn1nnc(-c2ccc(NC(=O)c3cccnc3)cc2)n1	5.3 µM
Cc1nnc2ccc(Oc3ccc(-c4ccccc4)cc3)nn12	8.92 µM
COc1ccccc1CNCC(O)Cn1c2ccccc2c2ccccc21 (centres undefined)	12.9 µM
COc1ccc(-c2nc3ccc(C)cn3c2NCc2ccccc2)cc1SC1CCCCC1	2.34 µM
COc1cccc(C(=O)N/N=C(/c2ccccc2)c2ccccn2)c1	3.73 µM
CCC(C)(C)c1ccc(OCCCC[n+]2cccc(C)c2C)c(C(C)(C)CC)c1	0.804 µM
CC(=O)N(Cc1ccc(F)cc1)C1=C(NCCc2ccccc2)C(=O)c2ccccc2C1=O	4.13 µM
CCOc1ccc(-n2c(-c3ccc(OC)cc3)c[n+]3c2CCCCC3)cc1	0.289 µM
O=C(Nc1ccc(-c2csc(Nc3cccc(C(F)(F)F)c3)n2)cc1)c1cc([N+](=O)[O-])cc(C(F)(F)F)c1	7.63 µM
Cc1ccc(C(=O)Nc2nc(-c3ccccn3)cs2)s1	6.66 µM
CC(=O)c1ccc(OCc2cc(C(=O)N3CCCCC3c3cccnc3)no2)cc1 (centres undefined)	22.4 µM
Cc1cccc2cc(-c3ccccc3)c(-c3ccccc3)c[n+]12	4.21 µM
Cc1ccc2[nH]cc(/C=C/c3cc[n+](C)cc3)c2c1	5.46 µM
OCCCNc1c2ccccc2nc2ccccc12	9.09 µM
O=C(Cc1ccccc1)N/N=C/c1ccc([N+](=O)[O-])s1	7.26 µM
OC(c1cc(-c2ccc(C(F)(F)F)cc2)nc(C(F)(F)F)c1)C1CCCCN1 (centres undefined)	6.81 µM
COc1ccc(-n2c(=S)[nH]c3cc(C(=O)Nc4ccccc4OC)ccc3c2=O)cc1	8.24 µM
C=CCSc1nsc(NC(=O)Nc2ccc(F)cc2)n1	3.4 µM
Cc1csc2ncnc(NCCc3ccccn3)c12	6.88 µM
Nc1c(Cl)ncnc1N/N=C/c1ccccn1	2.07 µM
CC1(C)CC(N2CCN(c3ccccc3)CC2)=CC(=[N+]2CCCC2)C1	1.79 µM
COc1cccc(/C=N/Nc2cc(C)nc(-c3ccccc3O)n2)c1O	15.1 µM
Cc1ccc(-n2c(-c3ccccc3)c[n+]3c2CCc2ccccc2-3)c(C)c1	1.91 µM
COc1ccc(C(NC(=O)C(C)C)c2ccc3cccnc3c2O)cc1 (centres undefined)	2.84 µM
CC(=O)c1ccc(NC(=S)NCc2cccnc2)cc1	5.53 µM
O=C(c1cc2sccc2n1Cc1ccccc1)N1CCN(c2nc3ccccc3s2)CC1	5.51 µM

SMILES	AC50
CC(=O)c1c(C)[nH]c(C(=O)OCCCCN2C(=O)c3ccccc3C2=O)c1C	6.54 µM
CCCC(=O)NC(c1ccc(OC)cc1)c1ccc2cccnc2c1O (centres undefined)	2.4 µM
CCC(Sc1nc(C)cc(C)n1)C(=O)NC1=NN=C(c2ccc(C)cc2)CS1 (centres undefined)	2.14 µM
Cc1ccc(Nc2nc(NCc3ccco3)c3ccccc3n2)cc1	8.02 µM
Cn1nc([N+](=O)[O-])nc1Sc1cccc2cccnc12	7.81 µM
CC1=C/C(=N\OS(=O)(=O)c2ccccc2)C(C)=CC1=O	1.52 µM
COc1cccc(/C=N/Nc2snc(SC)c2C#N)c1O	5.12 µM
CC1(C)CC(N2CCN(Cc3ccccc3)CC2)=CC(=[N+]2CCCCC2)C1	2.55 µM
CCOC(=O)c1c(CSc2nc(C)cc(C)c2C#N)n(C)c2cc(Br)c(OC(C)=O)cc12	3.73 µM
N#Cc1ccc(-c2ccc(Cl)cc2)nc1SCC(=O)c1cccc(Cl)c1	6 µM
COc1ccc(-c2csc(NC(=O)C3CCN(c4ncnc5sc(C)c(C)c45)CC3)n2)cc1OC	4.88 µM
COc1ccc(/C(C)=N/NC(=O)c2cccc(S(=O)(=O)N3CCCC3)c2)c(O)c1	3.8 µM
COc1ccc(C(NC(C)=O)c2ccc3cccnc3c2O)c(OC)c1 (centres undefined)	4.24 µM
CCOc1cc(CNCCc2ccc(S(N)(=O)=O)cc2)ccc1OCc1ccc(Cl)cc1	7.84 µM
CCCCCCc1cc2cc(C(=O)Nc3ccccc3)c(=O)oc2cc1O	3.24 µM
COc1ccc(N=Nc2ccc(O)c3ncccc23)cc1	4.26 µM
CCN(CC)CCn1nc2c3c(cccc3c1=O)-c1ccccc1-2	6.74 µM
CCS(=O)(=O)c1ncc(Cl)c(C(=O)Nc2ccc(S(=O)(=O)N3CCCC(C)C3)cc2)n1 (centres undefined)	6.96 µM
O=C(c1cc(-c2cccc(O)c2)on1)N1CCN(C(c2ccccc2)c2ccccc2)CC1	14.4 µM
Cc1ccc(C)c(N=Nc2ccc(O)c3ncccc23)c1	3.98 µM
COc1cc(/C=C2\CC(C(C)(C)C)C/C(=C\c3cc(OC)c(OC)c(OC)c3)C2=O)cc(OC)c1OC (centres undefined)	6.04 µM
Cc1ccc(NC2=CC(=O)C(=O)c3ccccc32)cc1	7.65 µM
Cc1csc2c(N3CCN(C(=O)c4ccc(C(C)(C)C)cc4)CC3)ncnc12	14.9 µM
O=C(Nc1ccccc1Cl)/C(Cl)=C(\Cl)S(=O)c1ccccc1 (centres undefined)	2.9 µM
COc1cc([N+](=O)[O-])cc(/C=N/NC(=O)c2cc(-c3ccccc3)nc3ccccc23)c1O	9.5 µM
Cc1nc2ccccn2c1C(=O)/C=C/c1cccc([N+](=O)[O-])c1	7.93 µM
COc1ccc(-c2c([C@H]3[C@H]4C=CC[C@@H](C)[C@@H]4C(=O)N3Cc3ccccc3)ccc3ccccc23)cc1	7.67 µM

SMILES	AC50
CCCOc1ccc(/C=N/NC(=S)Nc2ccccc2[N+](=O)[O-])c(O)c1	7.44 µM
CC(=O)NC(c1ccco1)c1cc(F)c2cccnc2c1O (centres undefined)	10.6 µM
C/C(=N\NC(=O)c1cc(-c2cccs2)nc2ccccc12)c1ccccn1	1.92 µM
O=C(CSC1=NCCS1)Nc1ccnc2ccccc12	12.5 µM
OC(CNCCC1C=Nc2ccccc21)Cn1c2ccc(Cl)cc2c2cc(Cl)ccc21 (centres undefined)	7.93 µM
COc1ccc(CC(=O)Nc2ccncc2Cl)cc1	10.6 µM
CC(C)(C)c1cc(NCCCn2ccnc2)n2ncc(-c3ccccc3)c2n1	15 µM
Cc1cc(N/N=C/c2c(O)ccc3ccccc23)nc(-c2ccccc2O)n1	11.7 µM
c1ccc(-c2cc(-c3ccccc3)[n+](-c3ccccc3)c(-c3ccccc3)c2)cc1	2.65 µM
Cc1ccc(C)n1-c1ccc(C(=O)Nc2ccccc2)cc1	> 26 µM (inactive)
CC(C)CNC(=O)COC(=O)c1c2c(nc3ccccc13)/C(=C/c1cccs1)CC2	1.5 µM
Cc1nn(S(=O)(=O)c2ccc(Cl)cc2)c(C)c1Sc1ccc([N+](=O)[O-])cc1	7.69 µM
[O-][n+]1onc2c1CCc1c-2nn(-c2ccccc2Cl)[n+]1[O-]	7.37 µM
Cc1cc(C)nc(N/N=C/c2cc(Br)ccc2O)n1	12.6 µM
COc1ccc(C(C)NCCC(c2ccc(OC(C)C)cc2)c2ccccc2OC)cc1 (centres undefined)	7.99 µM
Cc1cccc(Oc2cc(NC(=O)c3ccccc3)cc([N+](=O)[O-])c2)c1	7.84 µM
C/C(=N/NC(=O)CN(c1ccccc1)S(=O)(=O)c1ccccc1)c1ccccc1O	10.2 µM
COc1ccc(Cn2c(SCc3cc(C)ccc3C)nc3cc(OC)c(OC)cc3c2=N)cc1	7.22 µM
Cc1nn(Cc2c(Cl)cccc2Cl)c(C)c1NC(=O)c1cn(-c2ccccc2)nc1-c1ccccc1	4.24 µM
O=C(OCn1ncc(Br)c(Br)c1=O)c1ccccc1Cl	4.55 µM
CCN(CC)S(=O)(=O)c1ccc(NC(=O)Nc2cccc(C(F)(F)F)c2)cc1	8.02 µM
O=C(CCCCCCCCCCC(=O)NCc1cccnc1)NCc1cccnc1	< 0.195 µM
CCCCn1c(=N)n(CC(=O)c2ccc(Br)s2)c2ccccc21	13.1 µM
Cc1ccccc1NC1=C/C(=N\S(=O)(=O)c2ccc(C(=O)O)cc2)c2ccccc2C1=O	12 µM
C=C1C(=O)O[C@@H]2C[C@@H](C)[C@@H]3C4OC4C(=O)[C@@]3(C)[C@@H](O)[C@H]12 (some centres undefined)	7.57 µM
